How the values were obtained:
Format in all cases: biochemical
Akt1 = target: T1, Akt1 (Homo sapiens, UniProt P31749); test: Akt1 Kinase Assay (Luciferase-Coupled Chemiluminescent Kinase assay, LCCA); conditions: human Akt1 kinase domain residues R144-A480, activated with PDK1; 1 μM ATP; read-out: Akt-1 IC50
T1 construct: made in house
Description: (§1) Kinase activity and compound inhibition are investigated using one or more of the three assay formats described below. The ATP concentrations for each assay are selected to be close to the Michaelis-Menten constant (KM) for each individual kinase. Dose-response experiments are performed at 10 different inhibitor concentrations in a 384-well plate format. The data are fitted to four-parameter equation (2) below; where Y is the observed signal, X is the inhibitor concentration, Min is the background signal in the absence of enzyme (0% enzyme activity), Max is the signal in the absence of inhibitor (100% enzyme activity), IC50 is the inhibitor concentration at 50% enzyme inhibition and H represents the empirical Hill's slope to measure the cooperativity. Typically H is close to unity. Y=Min+(Max−Min)/(1+(X/IC50)^H) Equation (2) p70S6 Kinase Assay
Biochemical activity of Akt1 kinase was assessed using a Luciferase-Coupled Chemiluminescent Kinase assay (LCCA) format. Kinase activity was measured as the percent ATP remaining following the kinase reaction. Remaining ATP was detected by luciferase-luciferin-coupled chemiluminescence. Specifically, the reaction was initiated by mixing test compounds, 1 μM ATP, 5 μM crosstide peptide and 1.3 nM Akt1 (baculovirus expressed human Akt1 kinase domain residues R144-A480, activated with PDK1) in a 20 uL assay buffer (20 mM Tris-HCL pH 7.5, 10 mM MgCl2, 0.01% Triton X-100, 1 mM DTT, 3 mM MnCl2). The mixture is incubated at ambient temperature for 3 hours after which 20 μL luciferase-luciferin mix is added and the chemiluminescent signal read using a Wallac Victor2 reader. The luciferase-luciferin mix consists of 50 mM HEPES, pH 7.8, 8.5 μg/mL oxalic acid (pH 7.8), 5 (or 50) mM DTT, 0.4% Triton X-100, 0.25 mg/mL coenzyme A, 63 uM AMP, 28 μg/mL luciferin and 40,000 units/mL luciferase.

PDK1 = target: T2, PDK1 (Homo sapiens, UniProt O15530); test: PDK1 Kinase Assay (Luciferase-Coupled Chemiluminescent Kinase assay, LCCA); conditions: human PDK1 kinase domain residues M51-T359; 0.5 μM ATP; read-out: PDK-1 IC50
T2 construct: human PDK1 kinase domain residues M51-T359; made in house
T2 sequence (O15530 51-359): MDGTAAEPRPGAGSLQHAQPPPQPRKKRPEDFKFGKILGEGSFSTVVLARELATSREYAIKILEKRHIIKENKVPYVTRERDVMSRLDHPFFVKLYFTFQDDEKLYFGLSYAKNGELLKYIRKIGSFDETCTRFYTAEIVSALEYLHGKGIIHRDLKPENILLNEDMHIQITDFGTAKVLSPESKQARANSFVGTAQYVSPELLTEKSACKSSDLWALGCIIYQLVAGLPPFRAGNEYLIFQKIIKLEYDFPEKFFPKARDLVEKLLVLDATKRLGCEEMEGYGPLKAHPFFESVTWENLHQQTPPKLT
Description: as §1
Biochemical activity of PDK1 kinase was assessed using a Luciferase-Coupled Chemiluminescent Kinase assay (LCCA) format. Kinase activity was measured as the percent ATP remaining following the kinase reaction. Remaining ATP was detected by luciferase-luciferin-coupled chemiluminescence. Specifically, the reaction was initiated by mixing test compounds, 0.5 μM ATP, 0.6 μM PDKtide peptide and 6 nM PDK1 (baculovirus expressed human PDK1 kinase domain residues M51-T359) in a 20 uL assay buffer (20 mM Hepes pH 7.5, 1 mM CaCl2, 0.03% CHAPS, 2 mM DTT). The mixture is incubated at ambient temperature for 3 hours after which 20 μL luciferase-luciferin mix is added and the chemiluminescent signal read using a Wallac Victor2 reader. The luciferase-luciferin mix consists of 50 mM HEPES, pH 7.8, 8.5 μg/mL oxalic acid (pH 7.8), 5 (or 50) mM DTT, 0.4% Triton X-100, 0.25 mg/mL coenzyme A, 63 uM AMP, 28 μg/mL luciferin and 40,000 units/mL luciferase.

p70S6K = target: T3, p70S6K (Homo sapiens, UniProt P23443, T412E); test: p70S6 Kinase Assay (Luciferase-Coupled Chemiluminescent Kinase assay, LCCA); conditions: human p70S6 kinase domain residues 1-421, T412E; 5 μM ATP; read-out: p70S6K IC50
T3 construct: human p70S6 kinase domain residues 1-421, containing a T412E mutation; made in house
T3 sequence (P23443 1-421 T412E): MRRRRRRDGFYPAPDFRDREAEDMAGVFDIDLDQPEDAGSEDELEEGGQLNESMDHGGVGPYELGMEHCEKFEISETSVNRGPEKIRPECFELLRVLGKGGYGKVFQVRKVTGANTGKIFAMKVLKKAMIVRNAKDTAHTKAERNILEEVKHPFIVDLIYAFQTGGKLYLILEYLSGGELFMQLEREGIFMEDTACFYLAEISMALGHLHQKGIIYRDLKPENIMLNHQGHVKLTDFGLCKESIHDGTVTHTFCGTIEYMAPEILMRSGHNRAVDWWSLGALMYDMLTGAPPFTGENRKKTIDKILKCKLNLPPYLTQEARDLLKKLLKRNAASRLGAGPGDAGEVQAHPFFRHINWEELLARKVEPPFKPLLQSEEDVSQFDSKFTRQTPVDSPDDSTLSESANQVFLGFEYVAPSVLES
Procedure, shortened: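 Luciferase-coupled chemiluminescence measured percent ATP remaining after the 2 h kinase reaction at ambient temperature, with ATP near the kinase's KM. Ten inhibitor concentrations were tested. IC50 was obtained from a Hill-equation fit.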

T1 sequence (P31749 144-480): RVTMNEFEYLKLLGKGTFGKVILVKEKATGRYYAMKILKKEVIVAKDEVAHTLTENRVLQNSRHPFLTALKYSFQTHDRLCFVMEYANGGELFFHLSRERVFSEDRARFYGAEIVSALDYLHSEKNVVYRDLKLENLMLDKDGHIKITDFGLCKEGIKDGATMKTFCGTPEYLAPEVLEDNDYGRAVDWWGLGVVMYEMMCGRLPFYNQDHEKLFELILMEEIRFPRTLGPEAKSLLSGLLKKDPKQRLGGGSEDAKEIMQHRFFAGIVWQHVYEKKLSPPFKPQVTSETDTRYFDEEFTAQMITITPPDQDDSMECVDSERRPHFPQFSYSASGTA

Compound	IC50 (Akt1) [µM]	IC50 (PDK1) [µM]	IC50 (p70S6K) [µM]
CSc1nc(N)nc(SCC(=O)N(C)c2cccc(C(F)(F)F)c2)c1C#N [Example 16, 2-{(2-amino-5-cyano-6-(methylthio)pyrimidin-4-yl]thio}-N-methyl-N-[3-(trifluoromethyl)phenyl]acetamide]	> 2	> 2	0.05 to 0.5
Nc1cc(SCC(=O)Nc2cccc(C(F)(F)F)c2)nc(N)n1 [Example 33, 2-[(2,6-diaminopyrimidin-4-yl)thio]-N-[3-(trifluoromethyl)phenyl]acetamide]	> 2	> 2	< 0.05
CSc1nc(N)nc(N[C@@H](COC(C)=O)C(=O)Nc2cccc(C(F)(F)F)c2)c1C#N [Example 138, (2S0-2-{[2-amino-5-cyano-6-(methylthio)pyrimidin-4-yl]amino}-3-oxo-3-{[3-(trifluoromethyl)phenyl]amino}propyl acetate]	> 2	> 2	0.05 to 0.5
CCc1nnc(NC(=O)CSc2nc(N)nc(SC)c2C#N)s1 [Example 24, 2-{[2-amino-5-cyano-6-(methylthio)pyrimidin-4-yl]thio}-N-(5-ethyl-1,3,4-thiadiazol-2-yl)acetamide]	> 2	> 2	< 0.05
CSc1nc(N)nc(N(C)[C@@H](C)C(=O)Nc2cc(C(=O)NCCN3CCOCC3)cc(C(F)(F)F)c2)c1C#N [Example 135, 3-({N-[2-amino-5-cyano-6-(methylthio)pyrimidin-4-yl]-N-methyl-L-alanyl}amino)-N-(2-morpholin-4-ylethyl)-5-(trifluoromethyl)benzamide]	> 2	> 2	< 0.05
Nc1cc(SCC(=O)Nc2ccc(F)c(C(F)(F)F)c2)nc(N)n1 [Example 32, 2-[(2,6-diaminopyrimidin-4-yl)thio]-N-[4-fluoro-3-(trifluoromethyl)phenyl]acetamide]	> 2	> 2	< 0.05
CSc1nc(N)nc(N(C)[C@@H](C)C(=O)Nc2cc(C(=O)NCCCN3CCN(C)CC3)cc(C(F)(F)F)c2)c1C#N [Example 131, 3-({N-[2-amino-5-cyano-6-(methylthio)pyrimidin-4-yl]-N-methyl-L-alanyl}amino)-N-[3-(4-methylpiperazin-1-yl)propyl]-5-(trifluoromethyl)benzamide]	> 2	> 2	< 0.05
CSc1nc(N)nc(N[C@@H](C)C(=O)Nc2cc(C(=O)NO)cc(C(F)(F)F)c2)c1C#N [Example 141, 3-({N-[2-amino-5-cyano-6-(methylthio)pyrimidin-4yl]-L-alanyl}amino)-N-hydroxy-5-(trifluoromethyl)benzamide]	> 2	> 2	0.05 to 0.5
CSc1nc(N)nc(N[C@@H](CN(C)C)C(=O)Nc2cccc(C(F)(F)F)c2)c1C#N [Example 142, N~2~-[2-amino-5-cyano-6-(methylthio)pyrimidin-4-yl]-3-(dimethylamino)-N-[3-(trifluoromethyl)phenyl]-L-alaninamide]	> 2	> 2	0.05 to 0.5
CCOc1nc(N)nc(N[C@@H](CCCN)C(=O)Nc2cccc(C(F)(F)F)c2)c1C#N [Example 129, N^2-[2-amino-5-cyano-6-(ethyloxy)pyrimidin-4-yl]-N-[3-(trifluoromethyl)phenyl]-L-ornithinamide]	> 2	> 2	> 2
CCOc1nc(N)nc(N[C@@H](CCCN)C(=O)Nc2cccc(C(F)(F)F)c2)c1C#N [Example 148, N~2~-[2-amino-5-cyano-6-(ethyloxy)pyrimidin-4-yl]-N-[3-(trifluoromethyl)phenyl]-L-omithinamide]	> 2	–	0.5 to 2

Now from value to compound:

IC50 (Akt1) [µM]	IC50 (PDK1) [µM]	IC50 (p70S6K) [µM]	Compound
> 2	> 2	< 0.05	COc1ccc(OC)c(C(=O)CSc2nc(N)nc(SC)c2C#N)c1 [Example 30, 2-amino-4-({2-[2,5-bis(methyloxy)phenyl]-2-oxoethyl}thio)-6-(methylthio)pyrimidine-5-carbonitrile]
> 2	> 2	< 0.05	CSc1nc(N)nc(N(C)[C@@H](C)C(=O)Nc2cc(OC(F)(F)F)ccc2OCCN(C)C)c1C#N [Example 134, N~2~-[2-amino-5-cyano-6-(methylthio)pyrimidin-4-yl]-N-{2-{[2-(dimethylamino)ethyl]oxy}-5-[(trifluoromethyl)oxy]phenyl}-N~2~-methyl-L-alaninamide]
–	> 2	< 0.05	Nc1nc(NCC(=O)Nc2cccc(C(F)(F)F)c2)cc(N2CCOCC2)n1
> 2	> 2	< 0.05	CSc1nc(N)nc(N(C)[C@@H](C)C(=O)Nc2cccc(OC(F)(F)F)c2)c1C#N [Example 132, N~2~-[2-amino-5-cyano-6-(methylthio)pyrimidin-4-yl]-N~2~-methyl-N-{3-[(trifluoromethyl)oxy]phenyl}-L-alaninamide]
> 2	> 2	< 0.05	CSc1nc(N)nc(SC2CCN(c3cccc(C(F)(F)F)c3)C2=O)c1C#N (stereo not shown) [Example 35, 2-amino-4-(methylthio)-6-({2-oxo-1-[3-(trifluoromethyl)phenyl]pyrrolidin-3-yl}thio)pyrimidine-5-carbonitrile]
> 2	> 2	< 0.05	CSc1nc(N)nc(SCC(=O)Nc2ccc(C(F)(F)F)cn2)c1C#N [Example 4]
> 2	> 2	< 0.05	CSc1nc(N)nc(SCC(=O)Nc2nc(C)cs2)c1C#N [Example 25, 2-{[2-amino-5-cyano-6-(methylthio)pyrimidin-4-yl]thio}-N-(4-methyl-1,3-thiazol-2-yl)acetamide]
> 2	> 2	< 0.05	CSc1nc(N)nc(SCC(=O)Nc2nccs2)c1C#N [Example 27, 2-{[2-amino-5-cyano-6-(methylthio)pyrimidin-4-yl]thio}-N-1,3-thiazol-2-ylacetamide]
> 2	> 2	< 0.05	CSc1nc(COC(=O)Nc2cccc(C(F)(F)F)c2)cc(NCc2ccccc2)n1 [Example 40, {2-(methylthio)-6-[(phenylmethyl)amino]pyrimidin-4-yl}methyl [3-(trifluoromethyl)phenyl]carbamate]
> 2	> 2	< 0.05	CSc1nc(N)nc(SCC(=O)Nc2ccccn2)c1C#N [Example 29, 2-{[2-amino-5-cyano-6-(methylthio)pyrimidin-4-yl]thio}-N-pyridin-2-ylacetamide]
> 2	> 2	< 0.05	CCOc1nc(N)nc(N(C)[C@@H](CCCCN)C(=O)Nc2cccc(C(F)(F)F)c2)c1C#N [Example 136, N~2~-[2-amino-5-cyano-6-(ethyloxy)pyrimidin-4-yl]-N~2~-methyl-N-[3-(trifluoromethyl)phenyl]-L-lysinamide]

— patent publication US7816353B2 (Exelixis, Inc., priority 2003, dated 2010)
